According to ChEMBL document CHEMBL3885861, “Open TG-GATES”:

Species on record: Rattus norvegicus
Assay: Open TG-GATES - Regimen: Single
Assay type: toxicity, organism-based, Sprague-Dawley
Design: regimen Single, gender Male, age 6 weeks
Conditions: in vivo, po, 0 mg/kg, route gavage, dose level Control; for APTT / Bas / Eos / Fbg / Hb / Ht / Lym / MCH / MCHC / MCV / Mono / Neu / PT / Plat / RBC / Ret / WBC: tissue Blood; for KIDNEY_L / KIDNEY_R / KIDNEY_TOTAL: tissue Kidney; for LIVER: tissue Liver; for A/G / ALP / ALT / AST / BUN / CRE / Ca / Cl / DBIL / GLC / IP / K / LDH / Na / PL / RALB / TBIL / TC / TG / TP / gamma-GTP: tissue Plasma

## NC1=NC(=O)C(c2ccccc2)O1 (configuration not stated) [PEMOLINE]
3 h
  TERMINAL_BW: 210.7 g
  APTT: 17.2 s
  Bas: 0%
  Eos: 0.8%
  Fbg: 266 mg/dL
  Hb: 13.1 g/dL
  Ht: 38.2%
  Lym: 78.2%
  MCH: 21.6 pg
  MCHC: 34.3%
  MCV: 62.9 fL
  Mono: 3.8%
  Neu: 16.6%
  PT: 13.4 s
  Plat: 113.2 x10_4/uL
  RBC: 609.4 x10_4/ul
  Ret: 9.5%
  WBC: 87.4 x10_2/uL
  KIDNEY_L: 0.9 g
  KIDNEY_R: 1 g
  KIDNEY_TOTAL: 1.9 g
  LIVER: 9.1 g
  A/G: 1
  ALP: 1454.8 IU/L
  ALT: 44.8 IU/L
  AST: 77 IU/L
  BUN: 9.8 mg/dL
  CRE: 0.2 mg/dL
  Ca: 10.7 mg/dL
  Cl: 104.2 meq/L
  DBIL: 0.014 mg/dL
  GLC: 175.2 mg/dL
  IP: 8.8 mg/dL
  K: 4 meq/L
  LDH: 69.6 IU/L
  Na: 139.8 meq/L
  PL: 127 mg/dL
  RALB: 2.6 g/dL
  TBIL: 0.044 mg/dL
  TC: 78 mg/dL
  TG: 40.4 mg/dL
  TP: 5.3 g/dL
  gamma-GTP: 1.2 IU/L
6 h
  TERMINAL_BW: 209.5 g
  APTT: 17.2 s
  Bas: 0%
  Eos: 1%
  Fbg: 286.2 mg/dL
  Hb: 13.3 g/dL
  Ht: 39.1%
  Lym: 77.6%
  MCH: 22.4 pg
  MCHC: 34.1%
  MCV: 65.9 fL
  Mono: 3%
  Neu: 18%
  PT: 13.2 s
  Plat: 117 x10_4/uL
  RBC: 594.6 x10_4/ul
  Ret: 9.1%
  WBC: 88.4 x10_2/uL
  KIDNEY_L: 0.9 g
  KIDNEY_R: 0.9 g
  KIDNEY_TOTAL: 1.8 g
  LIVER: 8.8 g
  A/G: 1
  ALP: 1338 IU/L
  ALT: 41.2 IU/L
  AST: 72.8 IU/L
  BUN: 8.2 mg/dL
  CRE: 0.2 mg/dL
  Ca: 10.6 mg/dL
  Cl: 104.4 meq/L
  DBIL: 0.01 mg/dL
  GLC: 173.8 mg/dL
  IP: 9.4 mg/dL
  K: 3.9 meq/L
  LDH: 57.6 IU/L
  Na: 140.4 meq/L
  PL: 138.6 mg/dL
  RALB: 2.6 g/dL
  TBIL: 0.038 mg/dL
  TC: 84.2 mg/dL
  TG: 46.8 mg/dL
  TP: 5.3 g/dL
  gamma-GTP: 1.2 IU/L
9 h
  TERMINAL_BW: 210.1 g
  APTT: 17.2 s
  Bas: 0%
  Eos: 1%
  Fbg: 293.8 mg/dL
  Hb: 12.8 g/dL
  Ht: 37.5%
  Lym: 75.4%
  MCH: 21.5 pg
  MCHC: 34.2%
  MCV: 62.8 fL
  Mono: 3.2%
  Neu: 20.2%
  PT: 13.3 s
  Plat: 127.3 x10_4/uL
  RBC: 598.8 x10_4/ul
  Ret: 9.5%
  WBC: 89 x10_2/uL
  KIDNEY_L: 0.9 g
  KIDNEY_R: 0.9 g
  KIDNEY_TOTAL: 1.7 g
  LIVER: 8.1 g
  A/G: 1
  ALP: 1391.4 IU/L
  ALT: 41.6 IU/L
  AST: 74.8 IU/L
  BUN: 8.2 mg/dL
  CRE: 0.2 mg/dL
  Ca: 10.3 mg/dL
  Cl: 104.4 meq/L
  DBIL: 0.01 mg/dL
  GLC: 168.8 mg/dL
  IP: 10.7 mg/dL
  K: 3.8 meq/L
  LDH: 53.8 IU/L
  Na: 140.8 meq/L
  PL: 121.6 mg/dL
  RALB: 2.7 g/dL
  TBIL: 0.04 mg/dL
  TC: 74.2 mg/dL
  TG: 27.6 mg/dL
  TP: 5.3 g/dL
  gamma-GTP: 1.6 IU/L
24 h
  TERMINAL_BW: 216.7 g
  APTT: 17.2 s
  Bas: 0%
  Eos: 1%
  Fbg: 274.6 mg/dL
  Hb: 12.8 g/dL
  Ht: 37.7%
  Lym: 74.2%
  MCH: 21.8 pg
  MCHC: 34%
  MCV: 64.2 fL
  Mono: 3.8%
  Neu: 20.4%
  PT: 13 s
  Plat: 114.9 x10_4/uL
  RBC: 588.4 x10_4/ul
  Ret: 8.8%
  WBC: 92.6 x10_2/uL
  KIDNEY_L: 0.9 g
  KIDNEY_R: 0.9 g
  KIDNEY_TOTAL: 1.9 g
  LIVER: 9.9 g
  A/G: 1
  ALP: 1629.4 IU/L
  ALT: 50.4 IU/L
  AST: 79 IU/L
  BUN: 15 mg/dL
  CRE: 0.2 mg/dL
  Ca: 10.7 mg/dL
  Cl: 105 meq/L
  DBIL: 0.018 mg/dL
  GLC: 174.6 mg/dL
  IP: 8.2 mg/dL
  K: 4 meq/L
  LDH: 58.8 IU/L
  Na: 141 meq/L
  PL: 144.6 mg/dL
  RALB: 2.7 g/dL
  TBIL: 0.032 mg/dL
  TC: 82.6 mg/dL
  TG: 89 mg/dL
  TP: 5.4 g/dL
  gamma-GTP: 1 IU/L
